Laboratory results from patent publication US20220213030A1, “AMINOGUANIDINE HYDRAZONES AS RETROMER STABILIZERS USEFUL FOR TREATING NEUROLOGICAL DISEASES” (OSPEDALE SAN RAFFAELE SRL, priority 2019, published 2022).

Legend:
VPS26 = VPS26 MFI in NeuN+ MNs of G93A mice; assay type: in vivo, mouse; settings: 10 mg/kg, day 100
Description: We next assayed retromer proteins labelling sections of mice sacrificed at day 100 for VPS35 and NeuN. […] Similarly, we observed that VPS26 levels were increased in G93A mice receiving compound 2a (FIG. 11B). We further corroborated our experimental finding observing that compound 2a increased retromer functionality. The cation-independent mannose 6-phosphate receptor (CI-MPR) is a cargo (Arighi et al., 2004) of the retromer complex that is unstable in VPS26 knockout cells (Seaman 2004). We observed a substantial reduction of CI-MPR MFI levels in MNs of vehicle-treated G93A mice when compared with WT litters (FIG. 11C). […]
Fluorescence intensity levels of VPS35, VPS26, Sortilin, CTSD and Ubiquitin were calculated using NHI-Image J software (US National Institutes of Health) according to the following protocol: stacks of confocal images were used to generate the maximal projections (Las-X) and then post-processed by NHI-Image J to crop single NeuN^+ MNs from the ventral horn of the spinal cord. We next performed background (calculated on adjacent slices only receiving secondary antibodies) subtraction for each channel, before applying the NHI-Image J mean filter (with radius 2.0 pixels) to calculate mean NeuN fluorescence levels in individual MN. […] On this selected ROI, we calculated mean fluoresce levels (MFI) of each protein.

VPS35 = VPS35 (Mus musculus, UniProt Q9EQH3+Q9QZ88); assay: Cycloheximide (CHX) chase assay of VPS35 degradation in Neuro2a; assay type: cell-based; design: endogenous in cells; host or cells: Neuro2a; settings: 10 μM for 24 hours, then CHX 10 μg/mL up to 8 h
Experimental: Compound 2a increases the stability of the retromer complex in vitro. We further validated this concept by measuring VPS35 degradation rates by a cycloheximide (CHX) chase assay. Neuro2a cells received vehicle or lead 2a (10 μM) for 24 hours, then CHX was added to the medium, and VPS35 levels were measured by western blot. […] As is the case with R55 (Mecozzi, Berman et al. 2014), compound 2a should not influence the transcription levels of CRC genes in Neuro2a cells.
Cycloheximide (CHX) assay was done on Neuro2a cells seeded in 6-well plates and incubated with compound 2a (10 μM) or vehicle for 24 hours. We next added CHX (Sigma) at 10 μg/mL and cells were collected at 0, 2, 4 and 8 hours for the time-course assay of VPS35 levels.

G93A mice = assay: Motor neuron counts in ventral horn of lumbar spinal cord of G93A mice; assay type: in vivo, mouse; settings: 10 mg/kg daily, day 100
Experimental: Mice were sacrificed at day 100, and lumbar SCs assayed for studying MNs cell morphology and numbers. We initially scored NeuN^+ neurons in the ventral horn of the SC to monitor bona fide motor neurons.
Sections from mice (frozen cryo sections) or glass covers containing cells were washed three times in PBS 1× (Lonza, 5 min each), and incubated in the following blocking mix: PBS 1×/FBS 10% (Invitrogen), BSA 1 mg/mL (Sigma), TritonX100 0.1% (Sigma), for 1 h at room temperature. Antibodies were diluted in blocking mix and incubated at +4° C. overnight according manufacturer's instructions. The following day, sections were rinsed in PBS and fluorescent secondary antibodies—i.e. never deriving from the species from which the primary antibodies are derived—(Alexafluor conjugated) diluted in blocking mix, were used according to the manufacturer's instructions. Slides were incubated in Hoechst 33342 (Sigma) for nuclei counterstaining. When necessary, we performed antigens retrieval by boiling samples in 10 mM sodium citrate (pH 6) for 5 min. […]
Mice were maintained under pathogen-free conditions at San Raffaele Hospital mouse facility (Milan, Italy). […] Animal cohort numbers were determined by power analysis based on preliminary results.

N=C(N)NN=Cc1cccc(C=NNC(=N)N)c1 [Compound 2a, 1,3-Bis-amino guanidine phenyl hydrazone]
VPS26 levels (MFI) (VPS26): increased
VPS35 degradation after CHX (VPS35): protected VPS35 from degradation
numbers of NeuN+ motor neurons in the ventral horn (G93A mice): significantly higher numbers of motor neurons than vehicle-treated G93A mice
